In the NIST ThermoML archive (doi:10.1016/j.jct.2019.105891):

Key:
[1] = xn = mol fraction of the nth substance listed; settings: 100 kPa, Liquid, Falling or rolling sphere viscometry
[2] = refractive index (Na D-line) (dimensionless); xn = mol fraction of the nth substance listed; settings: 100 kPa, Liquid, Standard Abbe refractometry

Nc1ccccc1 [aniline] + CCn1cc[n+](C)c1.F[B-](F)(F)F
Settings	refractive index, 293.15 K	refractive index, 303.15 K	refractive index, 313.15 K	refractive index, 323.15 K	viscosity, 293.15 K [mPa·s]	viscosity, 303.15 K [mPa·s]	viscosity, 313.15 K [mPa·s]	viscosity, 323.15 K [mPa·s]
[1], x2 = 0	–	–	–	–	4.38	3.24	2.47	1.95
[1], x2 = 0.1008	–	–	–	–	6.84	4.88	3.66	2.66
[1], x2 = 0.2035	–	–	–	–	9.46	6.99	5.16	3.89
[1], x2 = 0.3059	–	–	–	–	12.58	8.93	6.81	5.07
[1], x2 = 0.4053	–	–	–	–	15.93	11.33	8.59	6.51
[1], x2 = 0.5073	–	–	–	–	20.31	14.07	10.48	7.99
[1], x2 = 0.6013	–	–	–	–	24.51	17.1	12.51	9.51
[1], x2 = 0.7046	–	–	–	–	28.93	20.39	14.91	11.06
[1], x2 = 0.8067	–	–	–	–	33.76	23.93	17.35	12.99
[1], x2 = 0.9059	–	–	–	–	39.55	27.15	19.68	14.9
[2], x2 = 0	1.58481	1.58152	1.57823	1.57494	–	–	–	–
[2], x2 = 0.1008	1.56571	1.56202	1.55833	1.55464	–	–	–	–
[2], x2 = 0.2035	1.54192	1.53814	1.53436	1.53058	–	–	–	–
[2], x2 = 0.3059	1.52125	1.51691	1.51285	1.5078	–	–	–	–
[2], x2 = 0.4053	1.50001	1.49592	1.49183	1.48774	–	–	–	–
[2], x2 = 0.5073	1.47963	1.47616	1.47269	1.46922	–	–	–	–
[2], x2 = 0.6013	1.46255	1.45885	1.45515	1.45245	–	–	–	–
[2], x2 = 0.7046	1.44852	1.44449	1.44126	1.43823	–	–	–	–
[2], x2 = 0.8067	1.43589	1.43188	1.42857	1.42556	–	–	–	–
[2], x2 = 0.9059	1.42458	1.42066	1.41748	1.41454	–	–	–	–
